The text below walks through data of patent US4774248A, “Methods of treating depression and depressive states using 5-phenyl-1,4,5,6-tetrahydropyrimidine derivatives” (priority 1985, dated 1988).

One data set relates to male mice. The experiment in a line: Acute toxicity, intraperitoneal (LD0, LD30, LD60, LD100). It is filed as in vivo. The procedure:
(§1) The results of toxicological and neuropsychopharmacological tests which were carried out with the products according to the invention have been summarized below. In these tests, solutions of the said products in distilled water were administered intraperitoneally in a volume of 20 ml/kg to male mice and in a volume of 5 ml/kg to male rats.

Data set [1] relates to mice. Briefly: Overall behavior and reactivities in mice. In kind it is in vivo. The following applies: i.p. As to the method:
as §1
(§2) Groups of 3 animals are observed before and then 0.25 h, 0.50 h, 1 h, 2 h, 3 h and 24 h after the administration of CRL 41 378. The following observations are made:
(§3) Groups of 3 animals are observed before and then 0.25 h, 0.50 h, 1 h, 2 h, 3 h and 24 h after the administration of CRL 41 329.

For the next data set, the system named is rats. Briefly: Overall behavior and reactivities in rats. It is filed as in vivo. The following applies: i.p. As to the method: as §1, §2, §3
For data set [2], the system named is hypothermia, righting behavior and stereotypies induced by apomorphine. Briefly: Interaction with apomorphine in mice. In kind it is in vivo. The following applies: i.p. The procedure: as §1
CRL 41 378 is administered to groups of 6 mice 30 minutes before the subcutaneous injection of 1 or 16 mg/kg of apomorphine.

In data set [3] the test system is hypothermia and ptosis induced by reserpine. Briefly: Interaction with reserpine. In kind it is in vivo. The following applies: mice, i.p.; reserpine 2.5 mg/kg. The procedure:
as §1
Four hours after the intraperitoneal injection of 2.5 mg/kg of reserpine, groups of 12 mice receive CRL 41 378.

Data set [4] has as its system hypothermia, trembling and peripheral cholinergic symptoms induced by oxotremorine. The experiment in a line: Interaction with oxotremorine. The following applies: mice, i.p.; oxotremorine 0.5 mg/kg. In kind it is in vivo. As to the method: as §1
CRL 41 378 is administered to groups of 6 mice 0.5 h before the intraperitoneal injection of 0.5 mg/kg of oxotremorine.

Data set [5] has as its system mice. The experiment in a line: Intergroup aggressiveness. In kind it is in vivo. The following applies: mice, i.p. As to the method: as §1
After they have stayed for 3 weeks in the two halves of a cage divided by an opaque partition, groups of 3 mice receive CRL 41 378. Half an hour later, the two groups from the same cage are brought together by removal of the partition and the number of fights which occur in 10 minutes is noted.

The test system of data set [6] is mice. The experiment in a line: Motility reduced by habituation to the enclosure. It is filed as in vivo. The following applies: i.p. The procedure:
as §1
After they have stayed in the actimeters for 18 hours, the mice (6 per dose, 12 control animals) receive CRL 41 378. They are immediately returned to their respective enclosures and, half an hour later, their motility is recorded for 30 minutes.

For data set [7], the system named is mice. The experiment in a line: Behavioral despair (forced immersion). It is filed as in vivo. The following applies: mice which have been forcibly immersed, i.p. As to the method: as §1
Half an hour after they have received CRL 41 378, groups of 6 mice are placed in a beaker filled with water to a height of 6 cm. The total period of immobility between the 2nd and 6th minutes following immersion is noted.

Data set [8] concerns central nervous system (CNS). Briefly: Neuropsychopharmacological profile (conclusions of the tests). In kind it is in vivo, mice and rats. The following applies: for overall neuropsychopharmacological profile: summary. As to the method: as §1
In data set [9] the test system is hypothermia induced by apomorphine. Briefly: Interaction with apomorphine by gastric administration. In kind it is in vivo. The following applies: Mus musculus, male mice, apomorphine 16 mg/kg s.c., read-out: dose as from which the hypothermia induced by apomorphine is opposed. The procedure:
Each test product is administered gastrically to male mice, in a volume of 20 ml/kg, 0.50 h before the subcutaneous injection of 16 mg/kg of apomorphine.

The test system of data set [10] is trembling and head twitches induced by 5-hydroxytryptophan (5-HTP). Briefly: Interaction with 5-hydroxytryptophan in association with an MAOI (nialamide). In kind it is in vivo, male mice. The procedure:
The purpose of the procedure used is to investigate the activity of each product according to the invention as regards the trembling induced by 5-hydroxytryptophan (5-HTP) in association with an MAOI (in this case nialamide).
Each test product, in solution in distilled water, is administered intraperitoneally in a volume of 20 ml/kg to male mice.
Groups of 10 mice receive nialamide (20 mg/kg, administered gastrically) at time T-18 h, each test product at time T-0.5 h and then (±)-5-HTP (20 mg/kg, administered intraperitoneally) at time T. Immediately after the injection of the (±)-5-HTP, the mice are individually placed in transparent plastic boxes. The generalized trembling, the partial trembling and the head twitches are noted on a yes/no basis for 2 h.

The next data set has as its system pregnant rabbits. The experiment in a line: Teratogenic effects on pregnant rabbits. In kind it is in vivo.
For data set [11], the system named is depressions and depressive states. The experiment in a line: Clinical trials in depression and depressive states. It is filed as in vivo, human. The procedure: The clinical trials which have been undertaken have made it possible to determine that the daily dose to be administered orally to adults, in the treatment of depressions and depressive states, is generally between 3 and 120 mg for the products of the formulae Ia and Ib according to the invention.

In data set [12] the test system is stereotypies induced by amphetamine. The experiment in a line: Interaction with amphetamine (rats). It is filed as in vivo. The following applies: i.p.; amphetamine 2 mg/kg. As to the method:
as §1
Amphetamine (2 mg/kg) is injected intraperitoneally into groups of 6 rats 30 minutes after the administration of CRL 41 378.

[13] abbreviates: i.p., nialamide + (±)-5-HTP, male mice.

“Also recorded” adds a separate entry of the source. Bounds are passed on as bounds.

On to `CC1=NCC(c2ccccc2)CN1.Cl` (centres unmarked) [CRL 41 352, 2-methyl-5-phenyl-1,4,5,6-tetrahydropyrimidine hydrochloride], for which, in the data set with male mice (64 mg/kg i.p.), the “toxic signs in the animals treated” value was “all the animals treated exhibit sedation and a decrease in the breathing rate”. Moreover, in the data set with male mice (intraperitoneal), the “LD0 (maximum non-lethal dose)” value is “greater than 64 mg/kg” and the LD30 is around 128 mg/kg. Further, the “overall behavior and reactivities” value in the data set with mice [1] (0.5 mg/kg, 2 mg/kg, 8 mg/kg and 32 mg/kg) is “no distinct modification of the behavior and reactivities”. Besides, in the data set on rats (4 mg/kg and 16 mg/kg), the “overall behavior and reactivities” value is recorded as “mydriasis”. The “overall behavior and reactivities” value in the data set on rats (16 mg/kg) was “a decrease in the breathing rate”. In addition, the “action on hypothermia induced by apomorphine” value in data set [2] was “significant antagonism (as from the lowest doses used) of the hypothermia induced by apomorphine and oxotremorine”. For the same molecule, the “action on hypothermia induced by reserpine” value in [3] is on record as “more moderate antagonism of the hypothermia induced by reserpine”. The “action on hypothermia induced by oxotremorine” value in data set [4] is “significant antagonism (as from the lowest doses used) of the hypothermia induced by apomorphine and oxotremorine”. Further, the “intergroup aggressiveness (number of fights)” value in the data set with mice [5] is reported as “a decrease in the number of fights in the intergroup aggressiveness test”. The “resumption in the motor activity of mice accustomed to their enclosure” value in the data set on mice [6] is reported as “a resumption in the motor activity of mice accustomed to their enclosure”. In addition, in the data set on mice [7], the period of immobility result is on record as “no decrease in the period of immobility due to "despair"”. For the same molecule, in [8] (i.p.), the antidepressant effects result was “antidepressant effects which are very distinct”; the sedative effects result is recorded as “sedative effects appearing at very high doses”; the stimulant effects entry is “a stimulant effect which is very moderate, appearing at high doses”. In [8], the overall neuropsychopharmacological profile result was “principally an antidepressant having a very slight stimulant component and a very weak sedative component”. The minimal effective dose in data set [9] is at least 0.5 mg/kg. For the same molecule, the “analogy with β-adrenergic stimulants in the 5-HTP procedure” value in [10] (5-HTP + MAOI) is recorded as “effects analogous to those of isoprenaline”. For the same molecule, in data set [10] (higher doses, 5-HTP + MAOI, male mice), the “intensity of potentiation of 5-HTP effects” value is given as “the potentiation being very intense at the doses of 8 to 32 mg/kg”. In data set [10] (setting [13]), the head twitches entry was “distinctly potentiate the partial trembling and the head twitches”; the partial trembling result is “distinctly potentiate the partial trembling and the head twitches”. Also, in the data set on pregnant rabbits, the teratogenic effects entry is reported as “devoid of harmful teratogenic effects on pregnant rabbits”. Besides, the “effectiveness in ambulant patients with depressive symptomatology” value in data set [11] (asthenia, slowing down or both psycho-intellectual and motor inhibition) is “particularly effective”. The “results in human therapy (depression)” value in data set [11] (daily oral administration to adults) is recorded as “excellent results”.

For `CC1(C)NCC(O)(c2ccccc2)CN1` [CRL 41 365, 2,2-dimethyl-5-hydroxy-5-phenyl-1,2,3,4,5,6-hexahydropyrimidine], in the data set with male mice (intraperitoneal), the “LD0 (maximum non-lethal dose)” value is reported as “greater than 512 mg/kg”. The “overall behavior and reactivities” value is “sedation, for 1 h; also recorded: a decrease in the heart rate for 1 h; also recorded: a decrease in the reactivity to touch for 0.5 h; also recorded: hypothermia for 3 h” in the data set on mice [1] (256 mg/kg); “no distinct modification of the behavior and reactivities compared with the control animals” in the data set on mice [1] (16 and 64 mg/kg); “no distinct modification of the behavior and reactivities compared with the control animals” in the data set with rats (8 mg/kg); “sedation and a decrease in the breathing rate for 1 h; also recorded: a decrease in the reactivity to touch for 0.5 h” in the data set on rats (32 mg/kg); “sedation and a decrease in the breathing rate for 3 h; also recorded: a decrease in the reactivity to touch for 1 h” with rats (128 mg/kg). The “hypothermia, maximum intensity” value with mice [1] (256 mg/kg, 0.5 h after administration) is -1.6 °C. The “action on stereotypies induced by amphetamine” value in [12] is “at all the doses studied, this product potentiates the stereotypies induced by amphetamine”. In addition, the period of immobility result in the data set on mice [7] is “a very moderate decrease in the period of immobility of mice which have been forcibly immersed”. Further, in data set [8] (i.p.), the sedative effects entry is “sedation with a decrease in the reactivities in rats and mice, hypothermia in mice”. In addition, in [8], the overall neuropsychopharmacological profile entry is on record as “essentially a sedative”.
